From ChEMBL document CHEMBL1201862, “PubChem BioAssay data set” (2004)
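Five compound concentrations were applied to cells in 96-well plates for 48 hours; endpoints were derived by simple linear interpolation of the resulting dose-response curve. Here, GI50 denotes the concentration required for 50% inhibition of growth.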 Active and inactive are the calls of the source. No stated cut-off is given here; in the data, active = GI50 up to about 1.1 µM and inactive = higher.

Tests used:
Experiment in all cases: NCI-60 cell line screen, 48 h
[1] = tested on: SK-MEL-5
[2] = tested on: DU-145
[3] = tested on: M14
[4] = tested on: TK-10
[5] = tested on: HOP-62
[6] = tested on: RXF 393
[7] = tested on: MOLT-4
[8] = tested on: ACHN
[9] = tested on: A549
[10] = tested on: HCT-116
[11] = tested on: PC-3
[12] = tested on: A498
[13] = tested on: EKVX
[14] = tested on: T47D
[15] = tested on: SN12C
[16] = tested on: NCI-H226
[17] = tested on: OVCAR-3
[18] = tested on: NCI/ADR-RES
[19] = tested on: HCT-15
[20] = tested on: MCF7
[21] = tested on: OVCAR-5
[22] = tested on: SF-268
[23] = tested on: 786-0
[24] = tested on: HL-60
[25] = tested on: SF-295
[26] = tested on: U-251
[27] = tested on: NCI-H522
[28] = tested on: MDA-MB-231
[29] = tested on: IGROV-1
[30] = tested on: UACC-257
[31] = tested on: OVCAR-4
[32] = tested on: K562
[33] = tested on: SR
[34] = tested on: HCC 2998
[35] = tested on: MDA-MB-435
[36] = tested on: CAKI-1
[37] = tested on: SK-MEL-28
[38] = tested on: HT-29
[39] = tested on: Hs-578T
[40] = tested on: KM12
[41] = tested on: CCRF-CEM
[42] = tested on: Malme-3M
[43] = tested on: SK-MEL-2
[44] = tested on: OVCAR-8
[45] = tested on: MDA-N
[46] = tested on: RPMI-8226
[47] = tested on: BT-549
[48] = tested on: SNB-19
[49] = tested on: SW-620
[50] = tested on: NCI-H23
[51] = tested on: LOX IMVI
[52] = tested on: UACC-62
[53] = tested on: COLO 205
[54] = tested on: NCI-H460
[55] = tested on: UO-31

With `OCC1=C[C@@](COCc2ccccc2)(OCc2ccccc2)[C@@H](OCc2ccccc2)[C@@H]1OCc1ccccc1` the GI50 [1] was 15.7 µM (inactive), the GI50 [2] was 37.6 µM (inactive) and the GI50 [3] was 23.9 µM (inactive). The GI50 [4] was 21.3 µM (inactive), the GI50 [5] was 24.2 µM (inactive) and the GI50 [6] was 3.64 µM (inactive). The GI50 [7] was 4.57 µM (inactive), the GI50 [8] was 22.9 µM (inactive) and the GI50 [9] was 10.5 µM (inactive). The GI50 [10] was 12.2 µM (inactive), the GI50 [11] was 15.1 µM (inactive) and the GI50 [12] was 10.9 µM (inactive). For the same molecule, the GI50 [13] was 11.7 µM (inactive), the GI50 [14] was 19.3 µM (inactive) and the GI50 [15] was 2.86 µM (inactive). The GI50 [16] was 15.5 µM (inactive), the GI50 [17] was 11.7 µM (inactive) and the GI50 [18] was 3.61 µM (inactive). For the same molecule, the GI50 [19] was 17.1 µM, the GI50 [20] was 3.76 µM (inactive) and the GI50 [21] was 26.3 µM (inactive). The GI50 [22] was 11.6 µM (inactive), the GI50 [23] was 20.7 µM (inactive) and the GI50 [24] was 23.4 µM (inactive). The GI50 [25] was 13.2 µM (inactive), the GI50 [26] was 6.59 µM (inactive) and the GI50 [27] was 11 µM (inactive). The GI50 [28] was 9.08 µM (inactive), the GI50 [29] was 7.01 µM (inactive) and the GI50 [30] was 22.6 µM (inactive). For the same molecule, the GI50 [31] was 21.4 µM (inactive), the GI50 [32] was 10.6 µM (inactive) and the GI50 [33] was 12.2 µM (inactive). The GI50 [34] was 13.7 µM (inactive), the GI50 [35] was 6.64 µM (inactive) and the GI50 [36] was 14.5 µM (inactive). The GI50 [37] was 35.3 µM (inactive), the GI50 [38] was 12.7 µM (inactive) and the GI50 [39] was 21.9 µM (inactive). For the same molecule, the GI50 [40] was 15.9 µM (inactive), the GI50 [41] was 2.81 µM (inactive) and the GI50 [42] was 18 µM (inactive). The GI50 [43] was 12.7 µM (inactive), the GI50 [44] was 36.2 µM (inactive) and the GI50 [45] was 17.2 µM (inactive). For the same molecule, the GI50 [46] was 2.49 µM (inactive), the GI50 [47] was 24.7 µM (inactive) and the GI50 [48] was 42.8 µM (inactive). For the same molecule, the GI50 [49] was 18.5 µM (inactive), the GI50 [50] was 16.6 µM (inactive) and the GI50 [51] was 7.31 µM (inactive). The GI50 [52] was 17.3 µM (inactive), the GI50 [53] was 11.6 µM (inactive) and the GI50 [54] was 18.8 µM (inactive). For the same molecule, the GI50 [55] was 17 µM (inactive).
